A short description of the data set: Toxicity in brine shrimp after 24 hrs. Conditions: artemia, in vivo. It is filed as organism-based.

Converted amounts (≈) assume the structure as drawn.

This passage reports LC50 results from ChEMBL document CHEMBL1158963, “Taxinine M, a new tetracyclic taxane from Taxus brevifolia” (J Nat Prod, 1991).

Usually LC50 stands for the concentration that kills 50% of the test population. High values mean lower toxicity, low ones greater toxicity.

For the compound `CC(=O)O[C@H]1C(=O)[C@@]2(C)[C@H]([C@H](OC(=O)c3ccccc3)[C@]3(O)C[C@H](OC(=O)[C@H](O)[C@@H](NC(=O)c4ccccc4)c4ccccc4)C(C)=C1C3(C)C)[C@]1(OC(C)=O)CO[C@@H]1C[C@@H]2O` [PACLITAXEL], the LC50 at 24 h was 0.28 µg/mL (≈ 0.328 µM). As to `C/C=C(\C)C(=O)N[C@@H](c1ccccc1)[C@@H](O)C(=O)O[C@H]1C[C@@]2(O)[C@@H](OC(=O)c3ccccc3)[C@@H]3[C@]4(OC(C)=O)CO[C@@H]4C[C@H](O)[C@@]3(C)C(=O)[C@H](OC(C)=O)C(=C1C)C2(C)C` [CEPHALOMANNINE], the LC50 at 24 h stood at 0.81 µg/mL (≈ 0.974 µM). Compound `C=C1[C@@H](O)C[C@H](OC(C)=O)[C@@]2(COC(=O)c3ccccc3)[C@@H](OC(C)=O)[C@H](OC(C)=O)[C@@]3(O)[C@]4(C)OC[C@]3(C)C(CC4=O)[C@@H](OC(C)=O)[C@H]12` [TAXININE M] had an LC50 at 24 h of 620 µg/mL (≈ 903 µM).
